# Test results reported in BindingDB's records for doi:10.1021/jm030146j (Merck Research Laboratories, 2003).
# Biological target: Integrin alpha-IIb/beta-3 (Homo sapiens, UniProt P08514+P05106)
# Experiment: Inhibition of human alphaIIb-beta3 integrin in platelet aggregation assay
# Chain of Integrin alpha-IIb/beta-3 (P05106 27-788 limits assumed): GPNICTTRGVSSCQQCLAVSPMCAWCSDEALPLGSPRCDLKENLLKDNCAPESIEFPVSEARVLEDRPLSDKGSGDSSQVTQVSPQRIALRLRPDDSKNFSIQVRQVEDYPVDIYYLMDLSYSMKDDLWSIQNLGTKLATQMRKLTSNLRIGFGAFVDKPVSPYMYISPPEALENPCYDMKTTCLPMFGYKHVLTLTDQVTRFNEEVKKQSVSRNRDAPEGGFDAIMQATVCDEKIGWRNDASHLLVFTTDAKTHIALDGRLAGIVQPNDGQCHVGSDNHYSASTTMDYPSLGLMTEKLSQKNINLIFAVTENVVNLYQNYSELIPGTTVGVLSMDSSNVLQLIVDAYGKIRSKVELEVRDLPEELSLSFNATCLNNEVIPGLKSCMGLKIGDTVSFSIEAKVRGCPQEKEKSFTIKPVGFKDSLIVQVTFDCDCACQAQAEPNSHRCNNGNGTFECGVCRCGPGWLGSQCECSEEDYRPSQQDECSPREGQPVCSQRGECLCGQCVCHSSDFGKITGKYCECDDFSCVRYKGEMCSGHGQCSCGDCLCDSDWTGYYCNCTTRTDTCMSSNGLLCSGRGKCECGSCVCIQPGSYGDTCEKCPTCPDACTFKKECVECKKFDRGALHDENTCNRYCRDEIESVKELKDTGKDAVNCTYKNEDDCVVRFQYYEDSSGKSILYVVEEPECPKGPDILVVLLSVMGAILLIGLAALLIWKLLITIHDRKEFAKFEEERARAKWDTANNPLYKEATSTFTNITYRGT
# Chain of Integrin alpha-IIb/beta-3 (P08514 32-887 limits assumed): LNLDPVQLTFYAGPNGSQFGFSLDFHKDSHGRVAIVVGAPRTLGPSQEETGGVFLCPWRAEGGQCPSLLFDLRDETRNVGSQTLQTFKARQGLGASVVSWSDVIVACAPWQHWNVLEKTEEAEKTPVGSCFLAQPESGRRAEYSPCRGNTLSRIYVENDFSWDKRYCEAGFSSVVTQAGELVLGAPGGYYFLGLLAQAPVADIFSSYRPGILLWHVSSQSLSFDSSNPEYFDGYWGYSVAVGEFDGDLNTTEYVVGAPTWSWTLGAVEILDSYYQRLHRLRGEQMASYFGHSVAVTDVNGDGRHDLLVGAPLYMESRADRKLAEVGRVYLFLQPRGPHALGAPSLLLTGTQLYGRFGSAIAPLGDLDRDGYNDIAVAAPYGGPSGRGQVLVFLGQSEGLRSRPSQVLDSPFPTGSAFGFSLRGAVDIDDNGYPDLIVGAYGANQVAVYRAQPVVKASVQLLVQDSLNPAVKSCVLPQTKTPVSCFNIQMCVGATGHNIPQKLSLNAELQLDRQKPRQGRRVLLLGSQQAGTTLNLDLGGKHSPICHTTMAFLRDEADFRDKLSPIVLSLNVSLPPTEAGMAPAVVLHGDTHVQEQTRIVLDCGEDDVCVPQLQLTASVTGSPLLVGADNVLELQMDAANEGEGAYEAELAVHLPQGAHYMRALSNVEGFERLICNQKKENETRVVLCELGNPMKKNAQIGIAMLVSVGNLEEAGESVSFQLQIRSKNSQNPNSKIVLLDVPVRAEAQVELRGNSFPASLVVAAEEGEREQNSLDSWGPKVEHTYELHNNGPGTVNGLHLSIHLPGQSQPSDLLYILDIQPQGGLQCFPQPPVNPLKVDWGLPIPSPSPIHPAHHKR
# Chain of Integrin alpha-IIb/beta-3 (P08514 891-1039 limits assumed): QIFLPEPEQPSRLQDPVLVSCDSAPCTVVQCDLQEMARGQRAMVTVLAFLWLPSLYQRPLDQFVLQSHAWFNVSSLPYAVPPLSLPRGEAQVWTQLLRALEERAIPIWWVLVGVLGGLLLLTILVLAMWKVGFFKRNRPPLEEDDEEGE
row,Compound,IC50 [nM]
1,O=C(NC[C@H](NS(=O)(=O)c1ccccc1)C(=O)O)c1ccc(N2CCNCC2)cc1 [2-((S)-Benzenesulfonylamino)-3-(4-piperazin-1-yl-benzoylamino)-propionic acid],16
2,"O=C(O)CC(NC(=O)CCCCc1ccc2c(n1)NCCC2)c1cncnc1 (stereo not given) [3-Pyrimidin-5-yl-3-(5-5,6,7,8-tetrahydro-[1,8]naphthyridin-2-yl-pentanoylamino)-propionic acid]",> 10000

# Further lines, results first:
row,IC50 [nM],Compound
1,157,"CC1(C)[C@@H]2CC[C@@]1(CS(=O)(=O)N[C@@H](CNC(=O)c1ccc(CCc3ccc4c(n3)NCCC4)cc1)C(=O)O)C(=O)C2 [2-((S)-(1R,7S)-7,7-Dimethyl-2-oxo-bicyclo[2.2.1]hept-1-ylmethanesulfonylamino)-3-{4-[2-(5,6,7,8-tetrahydro-[1,8]naphthyridin-2-yl)-ethyl]-benzoylamino}-propionic acid]"
2,> 10000,"O=C(O)C[C@H](NC(=O)CN1CC[C@H](CCc2ccc3c(n2)NCCC3)C1=O)c1cccnc1 [3-(2-{(S)-2-Oxo-3-[2-(5,6,7,8-tetrahydro-[1,8]naphthyridin-2-yl)-ethyl]-pyrrolidin-1-yl}-acetylamino)-3-(S)-pyridin-3-yl-propionic acid]"
3,> 10000,"CNc1cccc(CCOc2ccc3c(c2)CN(CC(F)(F)F)C(=O)[C@H](CC(=O)O)C3)n1 [[(S)-8-[2-(6-Methylamino-pyridin-2-yl)-ethoxy]-3-oxo-2-(2,2,2-trifluoro-ethyl)-2,3,4,5-tetrahydro-1H-benzo[c]azepin-4-yl]-acetic acid]"
